The text below walks through data of ChEMBL document CHEMBL1143727, “Terpenoids from the medicinal plant Maytenus ilicifolia” (J Nat Prod, 2007).

The test system of the assay is Saccharomyces cerevisiae. Description: Antimicrobial activity against DNA damage check point deffective Saccharomyces cerevisiae mutants. The class given is functional, organism-based.

Molecules are shown by their SMILES. The source made the active and inactive calls. The calls are words filed in the database; no cut-off is given here.

As to `COC(=O)[C@]1(C)CC[C@](C)(CC[C@]2(C)C(/C=C\c3ccc4c(c3C)O[C@]3(O)C(=O)C=C5C(=CC=C6[C@@]5(C)CC[C@@]5(C)C7C[C@@H](C)C(=O)C[C@]7(C)CC[C@]65C)[C@]3(C)O4)[C@@H](C)CC[C@@H]2C)CC1` (some centres undefined), the result was inactive. For the molecule `C=C(C)C1CCC(C)[C@@]23CC=C(C)[C@]2(C1)Oc1cc2c(c(C)c1O3)C(=O)C=C1[C@@]2(C)CC[C@@]2(C)C3C[C@@H](C)C(=O)C[C@]3(C)CC[C@]12C` (some centres undefined), the outcome was inactive. Consider `C=C(C)C1CCC(C)[C@@]23CC=C(C)[C@]2(C1)Oc1c(cc2c(c1C)C=CC1[C@@]2(C)CC[C@@]2(C)C4C[C@@H](C)C(=O)C[C@]4(C)CC[C@]12C)O3` (some centres undefined), for which the outcome was inactive. Next, `COc1cc(C(=O)Oc2c(O)cc3c(c2C)C(O)CC2[C@@]3(C)CC[C@@]3(C)C4C[C@@H](C)C(=O)C[C@]4(C)CC[C@]23C)ccc1O` (some centres undefined): “inactive”.
